This note sets out measurements from patent US8748412B2, “Phenylalanine derivatives and their use as non-peptide GLP-1 receptor modulators” (Argusina Bioscience Inc., priority 2011, dated 2014).

Where only a bound is given, the exact number is not on record here.

T1 sequence (P43220 24-463): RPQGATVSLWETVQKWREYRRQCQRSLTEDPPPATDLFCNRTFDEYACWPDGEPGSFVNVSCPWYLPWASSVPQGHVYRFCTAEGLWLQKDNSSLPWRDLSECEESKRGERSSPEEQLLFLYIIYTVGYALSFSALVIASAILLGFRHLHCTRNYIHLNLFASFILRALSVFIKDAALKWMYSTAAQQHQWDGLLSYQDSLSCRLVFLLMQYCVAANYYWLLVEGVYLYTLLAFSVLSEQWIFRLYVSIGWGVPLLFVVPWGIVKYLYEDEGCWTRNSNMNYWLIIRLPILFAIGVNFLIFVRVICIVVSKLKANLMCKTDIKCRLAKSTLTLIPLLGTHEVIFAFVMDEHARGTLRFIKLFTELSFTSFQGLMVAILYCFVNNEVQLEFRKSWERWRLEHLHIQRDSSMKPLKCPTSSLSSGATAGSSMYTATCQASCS

One experiment has as its target T1, human GLP1R (Homo sapiens, UniProt P43220).
T1 construct: expressed in transfected cells; host or cells: CHO cells (ATCC), transient transfection with pCMV-human GLP1R
Nature of the experiment: Human GLP-1 receptor transfected cell assay (MRE/CRE-luciferase reporter gene, agonist activity). Format: cell-based. The settings on record: 6 h; conc. 3.16 μM; percentage of the activity of the control; read-out: Agonist Activity. The gist of the method: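 CHO cells transiently co-transfected with human GLP1R and MRE/CRE-driven luciferase reporter plasmids. Compound or GLP-1 (7-36 amide) standard dilution series added for 6 h at 37 °C, 5% CO2. Agonist activity read as Bright-Glo luciferase luminescence.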
In general terms: Reporter assays use an easily measured gene product as a stand-in for the process of interest.
Turning to `Cc1ccc(-c2ccc(C(=O)NC(Cc3ccc(-c4noc(-c5ccc(NC(=O)OC(C)(C)C)cc5)n4)c(Br)c3)C(=O)O)o2)cc1` (centres unmarked) [Compound 13G], the activation at 3.16 µM was > 60%. As to `Cc1ccc(-c2ccc(C(=O)NC(Cc3ccc(-c4nnc(-c5ccc(NC(=O)OC(C)(C)C)cc5)o4)c(F)c3)C(=O)O)o2)cc1` (centres unmarked) [Compound 14F], the activation at 3.16 µM fell in the range of 40 to 60%. Still for that read-out and setting: with `CC(C)(C)OC(=O)Nc1ccc(-c2nc(-c3ccc(CC(NC(=O)c4cncc(-c5ccc(F)cc5)c4)C(=O)O)cc3F)no2)cc1` (centres unmarked) [Compound 14H] the figure was > 60%.

The same experiment, now with this note: 6 h; conc. 10 μM; percentage of the activity of the control; read-out: Agonist Activity.
As for `CC(C)(C)OC(=O)Nc1ccc(-c2nc(-c3ccc(CC(NC(=O)N4CCN(c5cccc(C(F)(F)F)c5)CC4)C(=O)O)cc3F)no2)cc1` (centres unmarked) [Compound 12F], the activation at 10 µM is > 60%. Consider `Cc1ccc(-c2cc(NC(=O)NC(Cc3ccc(-c4noc(-c5ccc(NC(=O)OC(C)(C)C)cc5)n4)c(F)c3)C(=O)O)[nH]n2)cc1` (centres unmarked) [Compound 12G], for which the activation at 10 µM was > 60%.

In the case of `COc1ccc(-c2cc(NC(=O)NC(Cc3ccc(-c4noc(-c5ccc(NC(=O)OC(C)(C)C)cc5)n4)c(F)c3)C(=O)O)[nH]n2)cc1` (centres unmarked) [Compound 12H], the activation at 10 µM was > 60%.

As for `CC(C)(C)OC(=O)Nc1ccc(-c2nc(-c3ccc(CC(NC(=O)Nc4cc(-c5ccc(F)cc5)n[nH]4)C(=O)O)cc3F)no2)cc1` (centres unmarked) [Compound 12I], the activation at 10 µM is > 60%. With `CC(C)(C)OC(=O)Nc1ccc(-c2nc(-c3ccc(CC(NC(=O)N4CCN(c5ccc(Cl)cc5)CC4)C(=O)O)cc3F)no2)cc1` (centres unmarked) [Compound 13A], the activation at 10 µM was > 60%. Still for that read-out and setting: with `CC(C)(C)OC(=O)Nc1ccc(-c2nc(-c3ccc(CC(NC(=O)c4ccc(-c5ccccn5)s4)C(=O)O)cc3F)no2)cc1` (centres unmarked) [Compound 13B] the figure was > 60%; with `CC(C)(C)OC(=O)Nc1ccc(-c2nc(-c3ccc(CC(NC(=O)Nc4ccccc4)C(=O)O)cc3F)no2)cc1` (centres unmarked) [Compound 13D], 40 to 60%. With `Cc1ccc(-c2ccc(C(=O)NC(Cc3ccc(-c4noc(-c5ccc(NC(=O)OC(C)(C)C)cc5)n4)c(F)c3F)C(=O)O)o2)cc1` (centres unmarked) [Compound 13F], the activation at 10 µM is > 60%. Regarding `CC(C)(C)OC(=O)Nc1ccc(-c2nc(-c3ccc(CC(NC(=O)Nc4ccc(C(F)(F)F)cc4)C(=O)O)cc3F)no2)cc1` (centres unmarked) [Compound 13H], the activation at 10 µM was > 60%. As for `Cc1ccc(-c2ccc(C(=O)NC(Cc3ccc(-c4noc(-c5ccc(NC(=O)OC(C)(C)C)cc5)n4)c(C#N)c3)C(=O)O)o2)cc1` (centres unmarked) [Compound 13I], the activation at 10 µM fell in the range of 40 to 60%. Take `CC(C)(C)OC(=O)Nc1ccc(-c2nc(-c3ccc(CC(NC(=O)Nc4ccc(-c5ccc(C(F)(F)F)cc5)cn4)C(=O)O)cc3F)no2)cc1` (centres unmarked) [Compound 13K]: the activation at 10 µM is > 60%. For the molecule `Cc1cccc(-c2ccc(NC(=O)NC(Cc3ccc(-c4noc(-c5ccc(NC(=O)OC(C)(C)C)cc5)n4)c(F)c3)C(=O)O)nc2)c1` (centres unmarked) [Compound 13L], the activation at 10 µM is > 60%. On to `Cc1ccc(-c2ccc(NC(=O)NC(Cc3ccc(-c4noc(-c5ccc(NC(=O)OC(C)(C)C)cc5)n4)c(F)c3)C(=O)O)nc2)cc1Cl` (centres unmarked) [Compound 13M], for which the activation at 10 µM is > 60%.

For `CC(C)(C)OC(=O)Nc1ccc(-c2nc(-c3ccc(CC(NC(=O)Nc4ccc(-c5ccc(OC(F)(F)F)cc5)cn4)C(=O)O)cc3F)no2)cc1` (centres unmarked) [Compound 13N], the activation at 10 µM is > 60%. `CC(C)c1ccc(-c2ccc(NC(=O)NC(Cc3ccc(-c4noc(-c5ccc(NC(=O)OC(C)(C)C)cc5)n4)c(F)c3)C(=O)O)nc2)cc1` (centres unmarked) [Compound 13O]: the activation at 10 µM lay within 40 to 60%. The same measure, in the same setting: with `Cc1ccc(N2CCC(NC(=O)NC(Cc3ccc(-c4noc(-c5ccc(NC(=O)OC(C)(C)C)cc5)n4)c(F)c3)C(=O)O)C2)cc1` (centres unmarked) [Compound 13P] the figure was > 60%; with `CC(C)(C)OC(=O)Nc1ccc(-c2nc(-c3ccc(CC(NC(=O)c4cccc(-c5ccc(Cl)cc5)c4)C(=O)O)cc3F)no2)cc1` (centres unmarked) [Compound 13Q], > 60%.

Turning to `Cc1ccc(-c2cccc(NC(=O)NC(Cc3ccc(-c4noc(-c5ccc(NC(=O)OC(C)(C)C)cc5)n4)c(F)c3)C(=O)O)c2)cc1` (centres unmarked) [Compound 13R], the activation at 10 µM is > 60%.

Consider `CC(C)(C)OC(=O)Nc1ccc(-c2nc(-c3ccc(CC(NC(=O)Nc4cc(-c5ccc(F)c(Br)c5)n[nH]4)C(=O)O)cc3F)no2)cc1` (centres unmarked) [Compound 13S], for which the activation at 10 µM was > 60%. The same measure, in the same setting: next, `CC(C)(C)OC(=O)Nc1ccc(-c2nc(-c3ccc(CC(NC(=O)Nc4ccc(-c5ccccc5F)cn4)C(=O)O)cc3F)no2)cc1` (centres unmarked) [Compound 13T]: > 60%. On to `Cc1ccccc1-c1ccc(NC(=O)NC(Cc2ccc(-c3noc(-c4ccc(NC(=O)OC(C)(C)C)cc4)n3)c(F)c2)C(=O)O)nc1` (centres unmarked) [Compound 13U], for which the activation at 10 µM was > 60%. In the case of `CC(C)(C)OC(=O)Nc1ccc(-c2nc(-c3ccc(CC(NC(=O)Nc4ccc(-c5cccc(Cl)c5)cn4)C(=O)O)cc3F)no2)cc1` (centres unmarked) [Compound 13V], the activation at 10 µM is > 60%. Turning to `CC(C)(C)OC(=O)Nc1ccc(-c2nc(-c3ccc(CC(NC(=O)Nc4ccc(-c5cccc(F)c5)cn4)C(=O)O)cc3F)no2)cc1` (centres unmarked) [Compound 13W], the activation at 10 µM was > 60%. In the case of `CC(C)(C)OC(=O)Nc1ccc(-c2nc(-c3ccc(CC(NC(=O)Nc4ccc(-c5ccccc5)cn4)C(=O)O)cc3F)no2)cc1` (centres unmarked) [Compound 13X], the activation at 10 µM is > 60%.

For `COc1ccc(-c2ccc(NC(=O)NC(Cc3ccc(-c4noc(-c5ccc(NC(=O)OC(C)(C)C)cc5)n4)c(F)c3)C(=O)O)nc2)cc1` (centres unmarked) [Compound 13Y], the activation at 10 µM is > 60%. On to `CC(C)(C)OC(=O)Nc1ccc(-c2nc(-c3ccc(CC(NC(=O)Nc4ccc(-c5cccs5)cn4)C(=O)O)cc3F)no2)cc1` (centres unmarked) [Compound 13Z], for which the activation at 10 µM is > 60%. Still for that read-out and setting: with `Cc1ccc(-c2ccc(C(=O)NC(Cc3ccc(-c4noc(-c5ccc(NC(=O)OC(C)(C)C)cc5F)n4)c(F)c3)C(=O)O)o2)cc1` (centres unmarked) [Compound 14A] the figure was > 60%; with `Cc1ccc(-c2cncc(C(=O)NC(Cc3ccc(-c4noc(-c5ccc(NC(=O)OC(C)(C)C)cc5)n4)c(F)c3)C(=O)O)c2)cc1` (centres unmarked) [Compound 14B], > 60%; with `Cc1ccc(-c2cc(C(=O)NC(Cc3ccc(-c4noc(-c5ccc(NC(=O)OC(C)(C)C)cc5)n4)c(F)c3)C(=O)O)ccn2)cc1` (centres unmarked) [Compound 14C], > 60%. On to `Cc1ccc(-c2ccc(C(=O)NC(Cc3ccc(-c4noc(-c5ccc(NC(=O)OC(C)(C)C)c(C)c5)n4)c(F)c3)C(=O)O)o2)cc1` (centres unmarked) [Compound 14D], for which the activation at 10 µM lay within 40 to 60%. Consider `COc1ccc(-c2cncc(C(=O)NC(Cc3ccc(-c4noc(-c5ccc(NC(=O)OC(C)(C)C)cc5)n4)c(F)c3)C(=O)O)c2)cc1` (centres unmarked) [Compound 14G], for which the activation at 10 µM was > 60%.

The same experiment, now with this note: 6 h; concentration 3.16 μM; read-out: Activity (agonist), percentage of the activity of the control.
Regarding `Cc1ccc(-c2ccc(C(=O)N[C@@H](Cc3ccc(-c4noc(-c5ccc(NC(=O)OC(C)(C)C)cc5)n4)c(F)c3)C(=O)O)o2)cc1` [Compound 12E], the activation at 3.16 µM was > 60%.
